Laboratory results published in US20220265657A1, “ADMINISTRATION METHOD AND DOSAGE REGIMEN FOR TREATMENT OF NEURODEGENERATIVE DISEASES USING TRAMETINIB AND MARKERS” (GENUV INC., priority 2019, published 2022).
Like-named read-outs stand apart in the source and are kept apart here.

Assays:
[1] = test system: 5XFAD mice; assay: Behavioral studies: Y-maze and novel object recognition tests; format: in vivo
Description: Trametinib treatment: Trametinib (Medchemexpress, Monmouth Junction, N.J.) was micronized and suspended in the vehicle containing 5% mannitol, 1.5% hydroxypropyl methylcellulose and 0.2% sodium lauryl sulfate. For pharmacokinetic analysis, 0.05, 0.2 and 0.8 mg/kg of trametinib were orally administered to 7-week-old normal mice (ICR, n=5 per group) as a single administration. […] For studies on the change in pERK expression in normal mice and whole cell RNA sequencing study, 0.1 mg/kg/day of trametinib (in 4% DMSO+96% corn oil) was orally administered to 6-week old C57BL/6 mice (n=3 per group). Mice were sacrificed after 1, 2, 3, or 4 weeks of administration. 5XFAD mice (male, n=7˜10 per group) were divided into vehicle and trametinib treated groups. 12-month old mice received vehicle or 0.1 mg/kg of trametinib for 1 month by oral gavage once a day (These mice are referred to as “13-month old 5XFAD mice” in the Examples). […] Blood was obtained after completion of treatment.

[2] = test system: primary cortical neurons; assay: Immunofluorescence of LC3, LAMP1 and lysotracker in primary cortical neurons; format: cell-based, ICR mice; settings: even in the presence of Aβ1-42 oligomers
Description: Cell culture: SH-SY5Y neuroblastoma cells were cultured at 37° C., 5% CO2., in Dulbecco's Modified Eagle Medium/Ham's F-12 nutrient mixture (DMEM/F12) (Invitrogen, Carlsbad, Calif.) supplemented with 10% heat-inactivated fetal bovine serum containing 100 units/ml penicillin, 100 μg/ml streptomycin. Primary cortical neuron cultures were derived from embryo day 18 (E18) from ICR mice. The dissociated cells were plated on glass cover slips coated with poly-D-lysine in Neurobasal medium supplemented with 2% B27 (Invitrogen), 100 units/ml penicillin, 100 μg/ml streptomycin, and 2 mM L-glutamine. Primary NSCs from normal mice were isolated from the subventricular zone (SVZ) of 8 week-old C57BL/6 mice brain. NSCs from adult Tg2576 mice brain were obtained from Seoul National University Hospital. […]
Immunocytochemistry: SH-SY5Y cells or adult NSCs were placed on glass coverslips coated with poly-L-ornithine/laminin or poly-D-lysine, respectively. […] The percentage of coefficient was calculated using the pixels above threshold of fluorescence intensities. […] The fluorescence intensity was observed under a confocal microscopy using a LSM700 microscope (Carl Zeiss). The number of LysoTracker puncta was analyzed with Icy software.

[3] = test system: patient with Alzheimer's disease; assay: Therapeutic effects of trametinib in humans; format: in vivo, human; settings: daily for at least four weeks, brain Cmax at least 0.25 ng/g
Description: Trametinib is administered to a patient with Alzheimer's disease in an amount that provides a mean peak trametinib concentration (Cmax) of at least 0.25 ng/g in the brain. The administration is performed daily for at least four weeks.

[4] = test system: 5XFAD mice; settings: 8-month old 5XFAD mice

Structure (SMILES): CC(=O)Nc1cccc(-n2c(=O)n(C3CC3)c(=O)c3c(Nc4ccc(I)cc4F)n(C)c(=O)c(C)c32)c1 [trametinib]
- memory formation in Y-maze and novel object recognition tests [1]: recovery of memory formation
- co-staining of LC3-LAMP1 [2]: increased co-staining of LC3-LAMP1
- lysotracker-positive acidic puncta [2]: increased
- behavioral and/or physiological symptoms associated with Alzheimer's disease [3]: reduces behavioral and/or physiological symptoms associated with Alzheimer's disease
- MBP levels ([4]; 0.05 mg/kg/day): restored back to levels comparable to that of wild type mice
- MBP levels ([4]; 0.1 mg/kg/day): restored back to levels comparable to that of wild type mice
